# Test results from the supplement of paper PMC4862054.
# Tested on: CAL-85-1
# Test: normalised response (% of control), CellTox Green; higher = less cell death (100 = DMSO, 0 = benzethonium chloride kill control)
# Conditions: incubation time: 72 h
# Summary of the method: (§1)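 A 20 µl suspension of breast cancer cells was seeded into each well of 384-well plates containing compound at 5 concentrations in 10-fold steps over a compound-specific 10,000-fold range. After 72 h incubation, CellTox Green fluorescence (485/520 nm) was read first, and CellTiter-Glo luminescence was read after 10 min at room temperature. Each plate was normalised against 0.1 % DMSO (100) and a positive kill control (0), and each value is the normalised signal at one concentration.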
row,Structure (SMILES),normalised response [%]
1,CCC(C)(C)C(=O)O[C@H]1C[C@@H](C)C=C2C=C[C@H](C)[C@H](CC[C@@H]3C[C@@H](O)CC(=O)O3)[C@H]21 [Simvastatin] (1000 nM),97.2
2,N.N.[Cl][Pt][Cl] [Cisplatin] (100 nM),121
3,N#CCNC(=O)c1ccc(-c2ccnc(Nc3ccc(N4CCOCC4)cc3)n2)cc1 [Momelotinib] (1000 nM),89.6
4,C[C@@H](Oc1cc(-c2cnn(C3CCNCC3)c2)cnc1N)c1c(Cl)ccc(F)c1Cl [Crizotinib] (100 nM),93.4

# Tested on: CAL-120
# Test: as above
# Conditions: incubation time: 72 h
# Summary of the method: as §1
row,Structure (SMILES),normalised response [%]
1,Cc1ccc(C(=O)N(CCCN)[C@@H](c2oc3cc(Cl)ccc3c(=O)c2Cc2ccccc2)C(C)C)cc1 (10 nM),95.5
2,CC(=O)Nc1ccc(C(=O)Nc2ccccc2N)cc1 [Tacedinaline] (100 nM),101
3,NC(=O)Nc1cc(-c2cccc(F)c2)sc1C(=O)N[C@H]1CCCNC1 [AZD7762] (100 nM),99.8
4,O=C(O)c1ccc(-c2c[nH]c3ncc(-c4ccccc4)cc23)cc1C1CCCC1 (1000 nM),98.4
5,CCCCCCCCCCCCCCCCCCOP(=O)([O-])OC1CC[N+](C)(C)CC1 [Perifosine] (250 nM),106
6,CCC(C)(C)C(=O)O[C@H]1C[C@@H](C)C=C2C=C[C@H](C)[C@H](CC[C@@H]3C[C@@H](O)CC(=O)O3)[C@H]21 [Simvastatin] (1000 nM),102
7,N.N.[Cl][Pt][Cl] [Cisplatin] (100 nM),109
8,N#CCNC(=O)c1ccc(-c2ccnc(Nc3ccc(N4CCOCC4)cc3)n2)cc1 [Momelotinib] (1000 nM),102
9,C[C@@H](Oc1cc(-c2cnn(C3CCNCC3)c2)cnc1N)c1c(Cl)ccc(F)c1Cl [Crizotinib] (100 nM),104

# Tested on: HCC1599
# Test: as above
# Conditions: incubation time: 72 h
# Summary of the method: as §1
row,Structure (SMILES),normalised response [%]
1,Cc1ccc(C(=O)N(CCCN)[C@@H](c2oc3cc(Cl)ccc3c(=O)c2Cc2ccccc2)C(C)C)cc1 (10 nM),91.8
2,CC(=O)Nc1ccc(C(=O)Nc2ccccc2N)cc1 [Tacedinaline] (100 nM),97.4
3,NC(=O)Nc1cc(-c2cccc(F)c2)sc1C(=O)N[C@H]1CCCNC1 [AZD7762] (100 nM),103
4,O=C(O)c1ccc(-c2c[nH]c3ncc(-c4ccccc4)cc23)cc1C1CCCC1 (1000 nM),90.9
5,CCCCCCCCCCCCCCCCCCOP(=O)([O-])OC1CC[N+](C)(C)CC1 [Perifosine] (250 nM),97.8
6,CCC(C)(C)C(=O)O[C@H]1C[C@@H](C)C=C2C=C[C@H](C)[C@H](CC[C@@H]3C[C@@H](O)CC(=O)O3)[C@H]21 [Simvastatin] (1000 nM),95.7
7,N.N.[Cl][Pt][Cl] [Cisplatin] (100 nM),97.4
8,N#CCNC(=O)c1ccc(-c2ccnc(Nc3ccc(N4CCOCC4)cc3)n2)cc1 [Momelotinib] (1000 nM),95.9
9,C[C@@H](Oc1cc(-c2cnn(C3CCNCC3)c2)cnc1N)c1c(Cl)ccc(F)c1Cl [Crizotinib] (100 nM),104

# Tested on: MDA-MB-436
# Test: as above
# Conditions: incubation time: 72 h
# Summary of the method: as §1
row,Structure (SMILES),normalised response [%]
1,Cc1ccc(C(=O)N(CCCN)[C@@H](c2oc3cc(Cl)ccc3c(=O)c2Cc2ccccc2)C(C)C)cc1 (10 nM),100
2,CC(=O)Nc1ccc(C(=O)Nc2ccccc2N)cc1 [Tacedinaline] (100 nM),110
3,NC(=O)Nc1cc(-c2cccc(F)c2)sc1C(=O)N[C@H]1CCCNC1 [AZD7762] (100 nM),83.7
4,O=C(O)c1ccc(-c2c[nH]c3ncc(-c4ccccc4)cc23)cc1C1CCCC1 (1000 nM),85.1
5,CCCCCCCCCCCCCCCCCCOP(=O)([O-])OC1CC[N+](C)(C)CC1 [Perifosine] (250 nM),94.7
6,CCC(C)(C)C(=O)O[C@H]1C[C@@H](C)C=C2C=C[C@H](C)[C@H](CC[C@@H]3C[C@@H](O)CC(=O)O3)[C@H]21 [Simvastatin] (1000 nM),106
7,N.N.[Cl][Pt][Cl] [Cisplatin] (100 nM),107
8,N#CCNC(=O)c1ccc(-c2ccnc(Nc3ccc(N4CCOCC4)cc3)n2)cc1 [Momelotinib] (1000 nM),103
9,C[C@@H](Oc1cc(-c2cnn(C3CCNCC3)c2)cnc1N)c1c(Cl)ccc(F)c1Cl [Crizotinib] (100 nM),80.2

# Tested on: MDA-MB-468
# Test: as above
# Conditions: incubation time: 72 h
# Summary of the method: as §1
row,Structure (SMILES),normalised response [%]
1,Cc1ccc(C(=O)N(CCCN)[C@@H](c2oc3cc(Cl)ccc3c(=O)c2Cc2ccccc2)C(C)C)cc1 (10 nM),111
2,NC(=O)Nc1cc(-c2cccc(F)c2)sc1C(=O)N[C@H]1CCCNC1 [AZD7762] (100 nM),50.3
3,N.N.[Cl][Pt][Cl] [Cisplatin] (100 nM),94.6
4,N#CCNC(=O)c1ccc(-c2ccnc(Nc3ccc(N4CCOCC4)cc3)n2)cc1 [Momelotinib] (1000 nM),178
5,C[C@@H](Oc1cc(-c2cnn(C3CCNCC3)c2)cnc1N)c1c(Cl)ccc(F)c1Cl [Crizotinib] (100 nM),122

# Tested on: CAL-148
# Test: as above
# Conditions: incubation time: 72 h
# Summary of the method: as §1
row,Structure (SMILES),normalised response [%]
1,Cc1ccc(C(=O)N(CCCN)[C@@H](c2oc3cc(Cl)ccc3c(=O)c2Cc2ccccc2)C(C)C)cc1 (10 nM),90.8
2,CC(=O)Nc1ccc(C(=O)Nc2ccccc2N)cc1 [Tacedinaline] (100 nM),105
3,NC(=O)Nc1cc(-c2cccc(F)c2)sc1C(=O)N[C@H]1CCCNC1 [AZD7762] (100 nM),102
4,CCCCCCCCCCCCCCCCCCOP(=O)([O-])OC1CC[N+](C)(C)CC1 [Perifosine] (250 nM),93.9
5,CCC(C)(C)C(=O)O[C@H]1C[C@@H](C)C=C2C=C[C@H](C)[C@H](CC[C@@H]3C[C@@H](O)CC(=O)O3)[C@H]21 [Simvastatin] (1000 nM),102
6,N.N.[Cl][Pt][Cl] [Cisplatin] (100 nM),105
7,N#CCNC(=O)c1ccc(-c2ccnc(Nc3ccc(N4CCOCC4)cc3)n2)cc1 [Momelotinib] (1000 nM),98.7
8,C[C@@H](Oc1cc(-c2cnn(C3CCNCC3)c2)cnc1N)c1c(Cl)ccc(F)c1Cl [Crizotinib] (100 nM),106

# Tested on: MFM-223
# Test: as above
# Conditions: incubation time: 72 h
# Summary of the method: as §1
row,Structure (SMILES),normalised response [%]
1,Cc1ccc(C(=O)N(CCCN)[C@@H](c2oc3cc(Cl)ccc3c(=O)c2Cc2ccccc2)C(C)C)cc1 (10 nM),101
2,CC(=O)Nc1ccc(C(=O)Nc2ccccc2N)cc1 [Tacedinaline] (100 nM),101
3,NC(=O)Nc1cc(-c2cccc(F)c2)sc1C(=O)N[C@H]1CCCNC1 [AZD7762] (100 nM),101
4,O=C(O)c1ccc(-c2c[nH]c3ncc(-c4ccccc4)cc23)cc1C1CCCC1 (1000 nM),93.1
5,CCCCCCCCCCCCCCCCCCOP(=O)([O-])OC1CC[N+](C)(C)CC1 [Perifosine] (250 nM),59.2
6,CCC(C)(C)C(=O)O[C@H]1C[C@@H](C)C=C2C=C[C@H](C)[C@H](CC[C@@H]3C[C@@H](O)CC(=O)O3)[C@H]21 [Simvastatin] (1000 nM),100
7,N.N.[Cl][Pt][Cl] [Cisplatin] (100 nM),82.7
8,N#CCNC(=O)c1ccc(-c2ccnc(Nc3ccc(N4CCOCC4)cc3)n2)cc1 [Momelotinib] (1000 nM),99.5
9,C[C@@H](Oc1cc(-c2cnn(C3CCNCC3)c2)cnc1N)c1c(Cl)ccc(F)c1Cl [Crizotinib] (100 nM),99.2

# Tested on: HCC1143
# Test: as above
# Conditions: incubation time: 72 h
# Summary of the method: as §1
row,Structure (SMILES),normalised response [%]
1,Cc1ccc(C(=O)N(CCCN)[C@@H](c2oc3cc(Cl)ccc3c(=O)c2Cc2ccccc2)C(C)C)cc1 (10 nM),112
2,CC(=O)Nc1ccc(C(=O)Nc2ccccc2N)cc1 [Tacedinaline] (100 nM),110
3,NC(=O)Nc1cc(-c2cccc(F)c2)sc1C(=O)N[C@H]1CCCNC1 [AZD7762] (100 nM),82.6
4,O=C(O)c1ccc(-c2c[nH]c3ncc(-c4ccccc4)cc23)cc1C1CCCC1 (1000 nM),96.2
5,CCCCCCCCCCCCCCCCCCOP(=O)([O-])OC1CC[N+](C)(C)CC1 [Perifosine] (250 nM),118
6,CCC(C)(C)C(=O)O[C@H]1C[C@@H](C)C=C2C=C[C@H](C)[C@H](CC[C@@H]3C[C@@H](O)CC(=O)O3)[C@H]21 [Simvastatin] (1000 nM),115
7,N.N.[Cl][Pt][Cl] [Cisplatin] (100 nM),109
8,N#CCNC(=O)c1ccc(-c2ccnc(Nc3ccc(N4CCOCC4)cc3)n2)cc1 [Momelotinib] (1000 nM),113
9,C[C@@H](Oc1cc(-c2cnn(C3CCNCC3)c2)cnc1N)c1c(Cl)ccc(F)c1Cl [Crizotinib] (100 nM),114

# Tested on: BT-474
# Test: as above
# Conditions: incubation time: 72 h
# Summary of the method: as §1
row,Structure (SMILES),normalised response [%]
1,Cc1ccc(C(=O)N(CCCN)[C@@H](c2oc3cc(Cl)ccc3c(=O)c2Cc2ccccc2)C(C)C)cc1 (10 nM),89.8
2,CC(=O)Nc1ccc(C(=O)Nc2ccccc2N)cc1 [Tacedinaline] (100 nM),99.1
3,NC(=O)Nc1cc(-c2cccc(F)c2)sc1C(=O)N[C@H]1CCCNC1 [AZD7762] (100 nM),102
4,O=C(O)c1ccc(-c2c[nH]c3ncc(-c4ccccc4)cc23)cc1C1CCCC1 (1000 nM),95.8
5,CCCCCCCCCCCCCCCCCCOP(=O)([O-])OC1CC[N+](C)(C)CC1 [Perifosine] (250 nM),100
6,CCC(C)(C)C(=O)O[C@H]1C[C@@H](C)C=C2C=C[C@H](C)[C@H](CC[C@@H]3C[C@@H](O)CC(=O)O3)[C@H]21 [Simvastatin] (1000 nM),94.2
7,N.N.[Cl][Pt][Cl] [Cisplatin] (100 nM),99.2
8,N#CCNC(=O)c1ccc(-c2ccnc(Nc3ccc(N4CCOCC4)cc3)n2)cc1 [Momelotinib] (1000 nM),101
9,C[C@@H](Oc1cc(-c2cnn(C3CCNCC3)c2)cnc1N)c1c(Cl)ccc(F)c1Cl [Crizotinib] (100 nM),104

# Tested on: CAL-51
# Test: normalised response (% of control), CellTiter-Glo; higher = more viable cells (100 = DMSO, 0 = benzethonium chloride kill control)
# Conditions: incubation time: 72 h
# Summary of the method: as §1
row,Structure (SMILES),normalised response [%]
1,Cc1ccc(C(=O)N(CCCN)[C@@H](c2oc3cc(Cl)ccc3c(=O)c2Cc2ccccc2)C(C)C)cc1 (10 nM),120
2,CC(=O)Nc1ccc(C(=O)Nc2ccccc2N)cc1 [Tacedinaline] (100 nM),114
3,NC(=O)Nc1cc(-c2cccc(F)c2)sc1C(=O)N[C@H]1CCCNC1 [AZD7762] (100 nM),111
4,O=C(O)c1ccc(-c2c[nH]c3ncc(-c4ccccc4)cc23)cc1C1CCCC1 (1000 nM),105
5,CCCCCCCCCCCCCCCCCCOP(=O)([O-])OC1CC[N+](C)(C)CC1 [Perifosine] (250 nM),116
6,CCC(C)(C)C(=O)O[C@H]1C[C@@H](C)C=C2C=C[C@H](C)[C@H](CC[C@@H]3C[C@@H](O)CC(=O)O3)[C@H]21 [Simvastatin] (1000 nM),109
7,N.N.[Cl][Pt][Cl] [Cisplatin] (100 nM),116
8,N#CCNC(=O)c1ccc(-c2ccnc(Nc3ccc(N4CCOCC4)cc3)n2)cc1 [Momelotinib] (1000 nM),122
9,C[C@@H](Oc1cc(-c2cnn(C3CCNCC3)c2)cnc1N)c1c(Cl)ccc(F)c1Cl [Crizotinib] (100 nM),104
